# Experimental data published in patent publication US5426186A (priority 1993, dated 1995).
# Structures can show the parent of a compound that is named as a salt.
# Target: GABAa receptor
# Test: GABAa receptor binding assay, displacement of 3H-RO15-1788 from rat cortical tissue
# Conditions: 0.5 nM 3H-RO15-1788, rat cortical homogenate, 4° C., nonspecific binding with 1.0 μM diazepam
# Method: The pharmaceutical utility of compounds of this invention are indicated by the following assay for GABAa receptor activity.
# Assays are carried out as described in Thomas and Tallman (J. Bio. Chem. 156: 9838-9842, J. Neurosci. 3:433-440, 1983). Rat cortical tissue is dissected and homogenized in 25 volumes (w/v) of 0.05M Tris HCl buffer (pH 7.4 at 4° C.). The tissue homogenate is centrifuged in the cold (4°) at 20,000×g for 20'. The supernatant is decanted and the pellet is rehomogenized in the same volume of buffer and again centrifuged at 20,000×g. The supernatant is decanted and the pellet is frozen at -20° C. overnight. The pellet is then thawed and rehomogenized in 25 volume (original wt/vol) of buffer and the procedure is carried out twice. The pellet is finally resuspended in 50 volumes (w/vol of 0.05M Tris HCl buffer (pH 7.4 at […]).
# Incubations contain 100 μl of tissue homogenate, 100 μl of radioligand 0.5 nM (^3 H-RO15-1788 specific activity 80 Ci/mmol), drug or blocker and buffer to a total volume of 500 μl. Incubations are carried for 30 rain at 4° C. then are rapidly filtered through GFB filters to separate free and bound ligand. Filters are washed twice with fresh 0.05M Tris HCl buffer (pH 7.4 at 4° C.) and counted in a liquid scintillation counter 1.0 μM diazepam is added to some tubes to determine nonspecific binding. Data are collected in triplicate determinations, averaged and % inhibition of total specific binding is calculated. Total Specific Binding=Total-Nonspecific. In some cases, the amounts of unlabeled drugs is varied and total displacement curves of binding are carried out. Data are converted to a form for the calculation of IC50 and Hill Coefficient (nH).
row,Compound,IC50 [nM]
1,"O=c1[nH]c2c(c3nc(-c4ccccc4)cn13)CCC2 [Compound 12, 2-Phenyl-8,9-dihydro-7H-cyclopent[g]-imidazo[1,2-c]-pyrimidin-5(6H)-one]",400
2,"Nc1nc2c(c3nc(-c4ccccc4F)cn13)CCCC2 [Compound 33, 5-Amino-2-(2-fluorophenyl)-7,8,9,10-tetrahydro-imidazo[1,2-c]-quinazoline]",100
3,"CN(C)C(=O)C1CCc2[nH]c(=O)n3cc(-c4ccccc4F)nc3c2C1 (stereo not shown) [Compound 18, 9-(N,N-Dimethylcarbamyl)-2-(2-fluorophenyl)-7,8,9,10-tetrahydro-imidazo[1,2-c]-quinazolin-5(6H)-one]",10
4,"CN(C)CC1CCc2[nH]c(=O)n3cc(-c4ccccc4F)nc3c2C1 (stereo not shown) [Compound 24, 9-(N,N-Dimethylaminomethyl)-2-(2-fluoropenyl)-7,8,9,10-tetrahydro-imidazo[1,2-c]-quinazolin-5(6H)-one monohydrochloride]",30
5,"CCOC(=O)C1CCc2[nH]c(=O)n3cc(-c4ccccc4F)nc3c2C1 (stereo not shown) [Compound 1, 9-Carboethoxy-2-(2-fluorophenyl)-7,8,9,10-tetrahydro-imidazo[1,2-c]-quinazolin-5(6H)-one]",7
6,"O=c1[nH]c2c(c3nc(-c4ccccc4F)cn13)CCCC2 [Compound 5, 2-(2-Fluorophenyl)-7,8,9,10-tetrahydro-imidazo[1,2-c]-quinazolin-5(6H)-one]",7
7,"O=c1[nH]c2c(c3nc(-c4ccccc4)cn13)CCCCC2 [Compound 13, 2-Phenyl-8,9,10,11-tetrahydro-7H-cyclohept[g]-imidazo[1,2-c]pyrimidin-5(6H)-one]",800
8,"CC(C)OC(=O)C1CCc2[nH]c(=O)n3cc(-c4ccccc4F)nc3c2C1 (stereo not shown) [Compound 14, 9-Carboisopropoxy-2-(2-fluorophenyl)-7,8,9,10-tetrahydro-imidazo[1,2-c]-quinazolin-5(6H)-one]",10
9,"CC(C)(C)OC(=O)NC1CCc2[nH]c(=O)n3cc(-c4ccccc4F)nc3c2C1 (stereo not shown) [Compound 28, 9-(t-Butoxycarbonylamino)-2-(2-fluorophenyl)-7,8,9,10-tetrahydro-imidazo[1,2-c]-quinazolin-5(6H)-one]",150
10,"CCOc1nc2c(c3nc(-c4ccccc4F)cn13)CCCC2 [Compound 39, 5-Ethoxy-2-(2-fluorophenyl)-7,8,9,10-tetrahydro-imidazo[1,2-c]-quinazoline]",5000
11,"Fc1ccccc1-c1cn2c(NCc3ccccc3)nc3c(c2n1)CCCC3 [Compound 31, 5-(N-benzylamino)-2-(2-fluorophenyl)-7,8,9,10-tetrahydro-imidazo[1,2-c]-quinazoline]",2000
12,"COc1ccc(-c2cn3c(=O)[nH]c4c(c3n2)CCCC4)cc1 [Compound 50, 2-(4-Methoxyphenyl)-7,8,9,10-tetrahydro-imidazo[1,2-c]-quinazolin-5(6H)-one]",50
13,"COc1ccc(-c2cn3c(=O)[nH]c4c(c3n2)CCCC4)c(F)c1 [Compound 51, 2-(2-Fluoro-4-methoxyphenyl)-7,8,9,10-tetrahydro-imidazo[1,2-c]-quinazolin-5(6H)-one]",3
